# Results published in ChEMBL document CHEMBL4387741, “Optimization of novel reversible Bruton's tyrosine kinase inhibitors identified using Tethering-fragment-based screens” (Bioorg Med Chem, 2019).
# Tests used:
# [1] = target: Atypical kinase COQ8A, mitochondrial (Homo sapiens) (UniProt Q8NI60); assay: Inhibition of wild-type human […] ADCK3 (M280 to Q647 residues) expressed in bacterial expression system at 1 uM by Kinomescan method relative to control
# [2] = target: SRSF protein kinase 3 (Homo sapiens) (UniProt Q9UPE1); assay: Inhibition of wild-type human partial length SRPK3 (P41 to P567 residues) expressed in bacterial expression system at 1 uM by Kinomescan method relative to control
# Sequence of SRSF protein kinase 3 (Homo sapiens) (Q9UPE1 whole entry, the tested form may be a part): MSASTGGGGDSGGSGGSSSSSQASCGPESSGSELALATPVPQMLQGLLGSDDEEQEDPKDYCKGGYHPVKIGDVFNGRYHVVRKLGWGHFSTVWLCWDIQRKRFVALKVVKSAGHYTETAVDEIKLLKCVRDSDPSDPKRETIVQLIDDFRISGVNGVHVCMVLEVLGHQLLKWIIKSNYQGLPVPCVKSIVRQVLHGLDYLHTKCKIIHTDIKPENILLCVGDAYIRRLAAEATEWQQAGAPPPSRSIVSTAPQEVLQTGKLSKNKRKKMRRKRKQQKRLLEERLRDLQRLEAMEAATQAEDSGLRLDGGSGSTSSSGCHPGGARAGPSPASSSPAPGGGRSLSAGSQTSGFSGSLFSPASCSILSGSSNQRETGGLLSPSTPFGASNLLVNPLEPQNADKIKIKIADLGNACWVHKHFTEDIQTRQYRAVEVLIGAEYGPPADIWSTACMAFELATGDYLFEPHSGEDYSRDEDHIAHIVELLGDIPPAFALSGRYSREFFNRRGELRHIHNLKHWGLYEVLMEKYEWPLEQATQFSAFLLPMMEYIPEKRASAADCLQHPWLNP
# [3] = target: Testis-specific serine/threonine-protein kinase 3 (Homo sapiens) (UniProt Q96PN8); assay: Inhibition of wild-type human full length TSSK3 (M1 to T268 residues) expressed in mammalian expression system at 1 uM by Kinomescan method relative to control
# [4] = target: Serine/threonine-protein kinase SBK1 (Homo sapiens) (UniProt Q52WX2); assay: Inhibition of wild-type human partial length SBK1 (P23 to P348 residues) expressed in mammalian expression system at 1 uM by Kinomescan method relative to control
# [5] = target: Receptor tyrosine-protein kinase erbB-4 (Homo sapiens) (UniProt Q15303); assay: Inhibition of wild-type human partial length ERBB4 (L690 to K994 residues) expressed in bacterial expression system at 1 uM by Kinomescan method relative to control
# [6] = target: NT-3 growth factor receptor (Homo sapiens) (UniProt Q16288); assay: Inhibition of wild-type human partial length TRKC (Q531 to G825 residues) expressed in mammalian expression system at 1 uM by Kinomescan method relative to control
# Sequence of NT-3 growth factor receptor (Homo sapiens) (Q16288 32-839 limits assumed): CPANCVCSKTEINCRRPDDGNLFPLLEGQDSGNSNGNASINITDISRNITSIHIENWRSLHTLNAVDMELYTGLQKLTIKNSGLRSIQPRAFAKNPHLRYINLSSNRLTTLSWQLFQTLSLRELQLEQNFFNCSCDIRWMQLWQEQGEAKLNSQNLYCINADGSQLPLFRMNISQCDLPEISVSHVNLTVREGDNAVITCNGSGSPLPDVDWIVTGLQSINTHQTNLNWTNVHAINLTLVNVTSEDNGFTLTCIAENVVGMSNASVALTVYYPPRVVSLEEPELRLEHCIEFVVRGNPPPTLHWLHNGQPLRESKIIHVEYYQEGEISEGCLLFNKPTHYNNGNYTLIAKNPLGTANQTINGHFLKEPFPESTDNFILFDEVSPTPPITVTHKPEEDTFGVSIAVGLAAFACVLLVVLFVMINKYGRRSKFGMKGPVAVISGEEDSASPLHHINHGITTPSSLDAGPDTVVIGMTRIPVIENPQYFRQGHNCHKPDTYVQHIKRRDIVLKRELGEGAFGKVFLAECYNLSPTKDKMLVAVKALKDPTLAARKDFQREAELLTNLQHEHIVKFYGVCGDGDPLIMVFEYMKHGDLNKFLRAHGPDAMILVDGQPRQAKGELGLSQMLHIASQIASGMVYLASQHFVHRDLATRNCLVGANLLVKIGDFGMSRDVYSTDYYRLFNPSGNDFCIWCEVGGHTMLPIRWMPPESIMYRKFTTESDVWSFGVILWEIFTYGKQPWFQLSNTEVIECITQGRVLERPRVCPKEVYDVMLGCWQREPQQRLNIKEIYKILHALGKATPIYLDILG
# [7] = target: Serine/threonine-protein kinase SIK2 (Homo sapiens) (UniProt Q9H0K1); assay: Inhibition of wild-type human full length SIK2 (M1 to N926 residues) expressed in bacterial expression system at 1 uM by Kinomescan method relative to control
# [8] = target: Myosin light chain kinase, smooth muscle (Homo sapiens) (UniProt Q15746); assay: Inhibition of wild-type human full length MYLK (M854 to E1845 residues) expressed in mammalian expression system at 1 uM by Kinomescan method relative to control
# [9] = target: Calcium/calmodulin-dependent protein kinase type 1G (Homo sapiens) (UniProt Q96NX5); assay: Inhibition of wild-type human partial length CAMK1G (M1 to A342 residues) expressed in bacterial expression system at 1 uM by Kinomescan method relative to control
# [10] = tested on: Tyrosine-protein kinase ABL1 (Homo sapiens), P00519 [F317L]; assay: Inhibition of human phosphorylated ABL1 F317L mutant (S229 to K512 residues) expressed in mammalian expression system at 1 uM by Kinomescan method relative to control
# [11] = target: Phosphatidylinositol 4,5-bisphosphate 3-kinase catalytic subunit gamma isoform (Homo sapiens) (UniProt P48736); assay: Inhibition of wild-type human partial length PIK3CG (S144 to A1102 residues) expressed in mammalian expression system at 1 uM by Kinomescan method relative to control
# Sequence of Phosphatidylinositol 4,5-bisphosphate 3-kinase catalytic subunit gamma isoform (Homo sapiens) (P48736 whole entry, looked up, the tested form may be a part, canonical isoform): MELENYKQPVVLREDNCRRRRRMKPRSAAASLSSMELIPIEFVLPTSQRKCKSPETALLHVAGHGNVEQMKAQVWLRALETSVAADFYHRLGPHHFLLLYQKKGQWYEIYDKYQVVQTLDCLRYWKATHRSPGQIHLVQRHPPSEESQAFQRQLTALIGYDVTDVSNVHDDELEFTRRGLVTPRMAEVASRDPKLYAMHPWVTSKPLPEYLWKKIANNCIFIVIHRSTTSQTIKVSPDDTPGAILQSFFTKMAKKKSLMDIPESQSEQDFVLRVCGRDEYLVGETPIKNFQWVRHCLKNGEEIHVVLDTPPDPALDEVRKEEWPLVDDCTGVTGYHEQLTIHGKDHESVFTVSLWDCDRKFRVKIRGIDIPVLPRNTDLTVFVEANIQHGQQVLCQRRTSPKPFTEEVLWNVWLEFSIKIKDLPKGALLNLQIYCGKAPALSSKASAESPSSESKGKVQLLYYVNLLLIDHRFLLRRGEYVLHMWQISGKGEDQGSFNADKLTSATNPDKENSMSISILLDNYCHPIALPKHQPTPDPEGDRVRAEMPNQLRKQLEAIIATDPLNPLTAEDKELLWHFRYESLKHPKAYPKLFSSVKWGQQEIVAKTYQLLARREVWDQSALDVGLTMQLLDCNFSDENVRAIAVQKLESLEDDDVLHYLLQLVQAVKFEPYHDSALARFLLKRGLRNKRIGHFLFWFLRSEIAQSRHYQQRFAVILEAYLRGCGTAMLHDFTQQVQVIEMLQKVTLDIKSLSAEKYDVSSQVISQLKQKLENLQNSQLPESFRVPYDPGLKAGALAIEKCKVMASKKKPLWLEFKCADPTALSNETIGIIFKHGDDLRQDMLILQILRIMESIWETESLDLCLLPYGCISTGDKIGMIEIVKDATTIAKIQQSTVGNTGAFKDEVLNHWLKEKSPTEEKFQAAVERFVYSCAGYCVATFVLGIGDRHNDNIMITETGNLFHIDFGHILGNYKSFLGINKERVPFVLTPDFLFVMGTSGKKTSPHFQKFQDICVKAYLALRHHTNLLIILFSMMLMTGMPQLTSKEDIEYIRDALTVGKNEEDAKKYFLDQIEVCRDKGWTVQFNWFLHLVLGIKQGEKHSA
# [12] = target: Serine/threonine-protein kinase Nek11 (Homo sapiens) (UniProt Q8NG66); assay: Inhibition of wild-type human partial length NEK11 (M1 to E313 residues) expressed in mammalian expression system at 10 uM by Kinomescan method relative to control
# [13] = target: Tyrosine-protein kinase BTK (Homo sapiens, UniProt Q06187); conditions: 10 uM
# Description: Inhibition of wild-type human full length BTK (M1 to S659 residues) expressed in mammalian expression system at 10 uM by Kinomescan method relative to control
# [14] = target: Myosin light chain kinase family member 4 (Homo sapiens) (UniProt Q86YV6); assay: Inhibition of wild-type human partial length MYLK4 (V79 to S380 residues) expressed in bacterial expression system at 10 uM by Kinomescan method relative to control
# [15] = target: Ephrin type-A receptor 2 (Homo sapiens) (UniProt P29317); assay: Inhibition of wild-type human partial length EPHA2 (T593 to V891 residues) expressed in bacterial expression system at 10 uM by Kinomescan method relative to control
# [16] = target: Ephrin type-B receptor 6 (Homo sapiens) (UniProt O15197); assay: Inhibition of wild-type human partial length EPHB6 (Q634 to P948 residues) expressed in mammalian expression system at 10 uM by Kinomescan method relative to control
# Sequence of Ephrin type-B receptor 6 (Homo sapiens) (O15197 whole entry, the tested form may be a part): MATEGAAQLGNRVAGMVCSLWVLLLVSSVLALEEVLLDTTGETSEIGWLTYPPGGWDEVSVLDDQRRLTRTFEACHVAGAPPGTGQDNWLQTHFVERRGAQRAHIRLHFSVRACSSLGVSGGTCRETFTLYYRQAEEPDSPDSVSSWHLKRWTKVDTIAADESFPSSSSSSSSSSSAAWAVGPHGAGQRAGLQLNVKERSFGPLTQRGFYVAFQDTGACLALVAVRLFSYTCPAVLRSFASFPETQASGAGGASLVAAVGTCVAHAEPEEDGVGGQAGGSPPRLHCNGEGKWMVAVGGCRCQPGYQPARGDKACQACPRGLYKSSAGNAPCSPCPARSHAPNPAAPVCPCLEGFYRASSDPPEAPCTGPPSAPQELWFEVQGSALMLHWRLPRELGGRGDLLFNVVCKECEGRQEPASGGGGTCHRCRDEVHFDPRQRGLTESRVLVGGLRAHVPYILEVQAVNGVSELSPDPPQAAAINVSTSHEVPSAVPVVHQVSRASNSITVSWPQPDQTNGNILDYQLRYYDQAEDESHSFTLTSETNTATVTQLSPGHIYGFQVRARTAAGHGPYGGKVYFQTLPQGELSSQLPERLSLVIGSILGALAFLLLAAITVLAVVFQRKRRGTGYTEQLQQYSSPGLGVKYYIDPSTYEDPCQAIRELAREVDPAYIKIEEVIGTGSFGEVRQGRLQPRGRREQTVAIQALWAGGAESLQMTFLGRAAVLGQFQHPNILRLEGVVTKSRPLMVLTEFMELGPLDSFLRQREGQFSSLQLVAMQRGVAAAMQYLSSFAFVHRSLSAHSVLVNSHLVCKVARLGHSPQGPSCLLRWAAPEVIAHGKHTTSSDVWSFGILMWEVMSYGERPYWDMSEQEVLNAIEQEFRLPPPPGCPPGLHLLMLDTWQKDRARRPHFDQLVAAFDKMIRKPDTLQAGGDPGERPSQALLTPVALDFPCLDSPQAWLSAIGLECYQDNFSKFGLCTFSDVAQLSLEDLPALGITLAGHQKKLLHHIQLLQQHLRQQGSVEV
# [17] = target: Serine/threonine-protein kinase 25 (Homo sapiens) (UniProt O00506); assay: Inhibition of wild-type human partial length YSK1 (V14 to H295 residues) expressed in bacterial expression system at 10 uM by Kinomescan method relative to control
# [18] = target: Death-associated protein kinase 2 (Homo sapiens) (UniProt Q9UIK4); assay: Inhibition of wild-type human full length DAPK2 (M1 to S370 residues) expressed in bacterial expression system at 10 uM by Kinomescan method relative to control
# [19] = target: Macrophage colony-stimulating factor 1 receptor (Homo sapiens) (UniProt P07333); assay: Inhibition of wild-type human partial length CSF1R (I564 to S939 residues) expressed in bacterial expression system at 10 uM by Kinomescan method relative to control
# Sequence of Macrophage colony-stimulating factor 1 receptor (Homo sapiens) (P07333 whole entry, the tested form may be a part): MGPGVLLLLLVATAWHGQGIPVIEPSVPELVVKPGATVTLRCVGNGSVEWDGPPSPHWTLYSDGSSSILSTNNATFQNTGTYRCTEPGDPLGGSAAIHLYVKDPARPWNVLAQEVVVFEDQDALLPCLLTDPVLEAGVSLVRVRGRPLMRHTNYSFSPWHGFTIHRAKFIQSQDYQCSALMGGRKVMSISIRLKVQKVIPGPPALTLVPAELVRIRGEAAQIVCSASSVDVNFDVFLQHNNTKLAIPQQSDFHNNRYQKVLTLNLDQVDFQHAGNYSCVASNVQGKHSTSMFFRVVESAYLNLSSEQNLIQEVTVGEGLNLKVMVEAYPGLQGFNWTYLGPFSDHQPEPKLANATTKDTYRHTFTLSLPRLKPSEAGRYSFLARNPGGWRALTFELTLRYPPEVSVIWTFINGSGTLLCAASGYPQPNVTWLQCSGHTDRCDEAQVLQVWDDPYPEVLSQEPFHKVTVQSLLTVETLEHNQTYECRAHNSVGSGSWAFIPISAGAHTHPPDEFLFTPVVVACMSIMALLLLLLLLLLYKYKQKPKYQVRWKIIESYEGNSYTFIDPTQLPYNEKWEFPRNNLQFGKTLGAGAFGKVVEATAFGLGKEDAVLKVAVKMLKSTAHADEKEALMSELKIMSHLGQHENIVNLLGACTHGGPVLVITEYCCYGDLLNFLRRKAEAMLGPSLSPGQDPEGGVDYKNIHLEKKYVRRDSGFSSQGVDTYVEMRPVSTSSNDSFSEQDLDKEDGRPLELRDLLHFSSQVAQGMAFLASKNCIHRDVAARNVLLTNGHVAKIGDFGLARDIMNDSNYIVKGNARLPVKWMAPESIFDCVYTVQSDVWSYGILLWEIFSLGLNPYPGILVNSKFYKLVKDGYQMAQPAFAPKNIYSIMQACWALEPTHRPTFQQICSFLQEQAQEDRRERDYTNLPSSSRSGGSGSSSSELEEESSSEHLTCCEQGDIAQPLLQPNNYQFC
# [20] = tested on: Epidermal growth factor receptor (Homo sapiens), P00533 [G719C]; assay: Inhibition of human partial length EGFR G719C mutant (R669 to V1011 residues) expressed in bacterial expression system at 10 uM by Kinomescan method relative to control
# [21] = target: Cyclin-dependent kinase 15 (Homo sapiens) (UniProt Q96Q40); assay: Inhibition of wild-type human full length PFTAIRE2 (M1 to W384 residues) expressed in bacterial expression system at 10 uM by Kinomescan method relative to control
# [22] = target: 3-phosphoinositide-dependent protein kinase 1 (Homo sapiens) (UniProt O15530); assay: Inhibition of wild-type human full length PDPK1 (M1 to Q556 residues) expressed in bacterial expression system at 10 uM by Kinomescan method relative to control
# [23] = target: CDK4/Cyclin D3 (Homo sapiens) (UniProt P11802+P30281); assay: Inhibition of wild-type human full length CDK4/cyclinD3 (M1 to E303 residues) expressed in mammalian expression system at 10 uM by Kinomescan method relative to control
# [24] = target: Serine/threonine-protein kinase BRSK2 (Homo sapiens) (UniProt Q8IWQ3); assay: Inhibition of wild-type human full length BRSK2 (M1 to L674 residues) expressed in bacterial expression system at 10 uM by Kinomescan method relative to control
# [25] = target: Mitogen-activated protein kinase kinase kinase 2 (Homo sapiens) (UniProt Q9Y2U5); assay: Inhibition of wild-type human partial length MAP3K2 (S315 to H619 residues) expressed in mammalian expression system at 10 uM by Kinomescan method relative to control
# [26] = tested on: Phosphatidylinositol 4,5-bisphosphate 3-kinase catalytic subunit alpha isoform (Homo sapiens), P42336 [I800L]; assay: Inhibition of human partial length PIK3CA I800L mutant (R108 to N1068 residues) expressed in mammalian expression system at 10 uM by Kinomescan method relative to control
# [27] = target: SRSF protein kinase 3 (Homo sapiens) (UniProt Q9UPE1); assay: Inhibition of wild-type human partial length SRPK3 (P41 to P567 residues) expressed in bacterial expression system at 10 uM by Kinomescan method relative to control
# Sequence of Atypical kinase COQ8A, mitochondrial (Homo sapiens) (Q8NI60 163-647 limits assumed): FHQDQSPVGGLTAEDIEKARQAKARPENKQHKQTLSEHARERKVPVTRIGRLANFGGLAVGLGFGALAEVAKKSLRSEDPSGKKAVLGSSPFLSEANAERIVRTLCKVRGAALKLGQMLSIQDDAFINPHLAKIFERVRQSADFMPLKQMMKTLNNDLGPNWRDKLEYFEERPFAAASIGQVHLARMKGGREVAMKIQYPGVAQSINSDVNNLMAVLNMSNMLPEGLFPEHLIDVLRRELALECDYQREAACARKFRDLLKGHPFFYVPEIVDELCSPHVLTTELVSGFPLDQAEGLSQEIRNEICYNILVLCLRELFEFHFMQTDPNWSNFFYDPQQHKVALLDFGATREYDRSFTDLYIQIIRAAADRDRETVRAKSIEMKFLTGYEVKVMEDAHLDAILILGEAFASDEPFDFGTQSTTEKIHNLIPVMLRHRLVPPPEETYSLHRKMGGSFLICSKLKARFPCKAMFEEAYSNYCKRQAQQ
structure (smiles),measurement,setting,value
O=C(Nc1cccc([C@@H]2CN(c3ncnc4[nH]ccc34)CCN2CCO)c1)Nc1c(F)cccc1N1CCCC1,inhibition,[1],100%
same,inhibition,[2],68%
same,inhibition,[3],43%
same,inhibition,[4],69%
same,inhibition,[5],100%
same,inhibition,[6],99%
same,inhibition,[7],93%
same,inhibition,[8],100%
same,inhibition,[9],100%
same,inhibition,[10],100%
same,inhibition,[11],84%
O=C(Nc1cccc([C@H]2CCCN(c3ncnc4[nH]ccc34)C2)c1)Nc1ccccc1N1CCCC1,inhibition,[12],69%
same,inhibition,[13],0.6%
same,inhibition,[14],2.6%
same,inhibition,[15],50%
same,inhibition,[16],8.6%
same,inhibition,[17],100%
same,inhibition,[18],7.1%
same,inhibition,[19],20%
same,inhibition,[20],86%
same,inhibition,[21],93%
same,inhibition,[22],41%
same,inhibition,[23],100%
same,inhibition,[24],92%
same,inhibition,[25],27%
same,inhibition,[26],34%
same,inhibition,[27],9%
